Data: US9051300B2, “Herbicides” (Syngenta Limited, priority 2009, dated 2015)

The compounds below were run on Winter Wheat variety 'Hereward' (assay: Crop damage to winter wheat, post-emergence spray). Settings: 250 g/ha, no safener, evaluated after 13 days, 100=total damage to plant, 0=no damage.
Type: in vivo
Protocol: Seeds of the Winter Wheat variety ‘Hereward’ were sown in standard soil in pots. After 8 days cultivation under controlled conditions in a glasshouse (at 24/16° C., day/night; 14 hours light; 65% humidity), the plants were sprayed post-emergence with an aqueous spray solution derived from the formulation of the technical active ingredient in acetone/water (50:50) solution containing 0.5% Tween 20 (polyoxyethylene sorbitan monolaurate, CAS RN 9005-64-5). The test plants were then grown in a glasshouse under controlled conditions in a glasshouse (at 24/16° C., day/night; 14 hours light; 65% humidity) and watered twice daily. After 13 days for pre and post-emergence, the test was evaluated (100=total damage to plant; 0=no damage to plant).

Structure (SMILES)	Winter Wheat (Hereward) (damage to plant)
Cc1sc(-c2ccc(Cl)cc2)nc1C1C(=O)C/C(=C/c2ccccn2)C1=O (stereo not drawn) [Compound A15]	10
Cc1sc(-c2ccc(Cl)cc2)nc1C1C(=O)CC(Cc2ccccn2)C1=O (stereo not drawn) [Compound A16]	60
Cc1cnc(-c2ccc(Cl)cc2)nc1C1C(=O)CC(CC2CCOCC2)C1=O (stereo not drawn) [Compound A8]	20
Cc1sc(-c2ccc(Cl)cc2)cc1C1C(=O)CC(CC2CCOCC2)C1=O (stereo not drawn) [Compound A6]	10
Cc1cc(-c2ccc(Cl)cc2)nn1C1C(=O)C/C(=C\C2CCOCC2)C1=O (stereo not drawn) [Compound A23]	80

The compounds below were run on Lolium perenne (LOLPE) (assay: Post-emergence herbicidal activity, glasshouse pot test). Settings: 312 h, evaluated after 13 days, 100=total damage to plant, 0=no damage.
Type: in vivo
Protocol: (§1) Seeds of a variety of test species are sown in standard soil in pots. After cultivation for one day (pre-emergence) or after 8 days cultivation (post-emergence) under controlled conditions in a glasshouse (at 24/16° C., day/night; 14 hours light; 65% humidity), the plants are sprayed with an aqueous spray solution derived from the formulation of the technical active ingredient in acetone/water (50:50) solution containing 0.5% Tween 20 (polyoxyethylene sorbitan monolaurate, CAS RN 9005-64-5). The test plants are then grown in a glasshouse under controlled conditions in a glasshouse (at 24/16° C., day/night; 14 hours light; 65% humidity) and watered twice daily. After 13 days for pre and post-emergence, the test is evaluated (100=total damage to plant; 0=no damage to plant). Lolium perenne (LOLPE), Alopecurus myosuroides (ALOMY), Echinochloa crus-galli (ECHCG), Avena fatua (AVEFA) Post-Emergence Activity

Structure (SMILES)	pest or weed control at 250 g/ha
Cc1sc(-c2ccc(Cl)cc2)nc1C1C(=O)C/C(=C/c2ccccn2)C1=O (stereo not drawn) [Compound A15]	0%
Cc1sc(-c2ccc(Cl)cc2)nc1C1C(=O)CC(Cc2ccccn2)C1=O (stereo not drawn) [Compound A16]	100%
Cc1cnc(-c2ccc(Cl)cc2)nc1C1C(=O)CC(CC2CCOCC2)C1=O (stereo not drawn) [Compound A8]	50%
Cc1sc(-c2ccc(Cl)cc2)cc1C1C(=O)CC(CC2CCOCC2)C1=O (stereo not drawn) [Compound A6]	0%
Cc1cc(-c2ccc(Cl)cc2)nn1C1C(=O)C/C(=C\C2CCOCC2)C1=O (stereo not drawn) [Compound A23]	100%

These compounds were tested on Echinochloa crus-galli (ECHCG) in the same assay as above. Settings: 312 h, evaluated after 13 days, 100=total damage to plant, 0=no damage.
Type: in vivo
Protocol: as §1

Structure (SMILES)	pest or weed control at 250 g/ha
Cc1sc(-c2ccc(Cl)cc2)nc1C1C(=O)C/C(=C/c2ccccn2)C1=O (stereo not drawn) [Compound A15]	20%
Cc1sc(-c2ccc(Cl)cc2)nc1C1C(=O)CC(Cc2ccccn2)C1=O (stereo not drawn) [Compound A16]	100%
Cc1cnc(-c2ccc(Cl)cc2)nc1C1C(=O)CC(CC2CCOCC2)C1=O (stereo not drawn) [Compound A8]	90%
Cc1sc(-c2ccc(Cl)cc2)cc1C1C(=O)CC(CC2CCOCC2)C1=O (stereo not drawn) [Compound A6]	60%
Cc1cc(-c2ccc(Cl)cc2)nn1C1C(=O)C/C(=C\C2CCOCC2)C1=O (stereo not drawn) [Compound A23]	100%

These compounds were tested on Avena fatua (AVEFA) in the same assay as above. Settings: 312 h, evaluated after 13 days, 100=total damage to plant, 0=no damage.
Type: in vivo
Protocol: as §1

Structure (SMILES)	pest or weed control at 250 g/ha
Cc1sc(-c2ccc(Cl)cc2)nc1C1C(=O)C/C(=C/c2ccccn2)C1=O (stereo not drawn) [Compound A15]	0%
Cc1sc(-c2ccc(Cl)cc2)nc1C1C(=O)CC(Cc2ccccn2)C1=O (stereo not drawn) [Compound A16]	100%
Cc1cnc(-c2ccc(Cl)cc2)nc1C1C(=O)CC(CC2CCOCC2)C1=O (stereo not drawn) [Compound A8]	50%
Cc1sc(-c2ccc(Cl)cc2)cc1C1C(=O)CC(CC2CCOCC2)C1=O (stereo not drawn) [Compound A6]	0%
Cc1cc(-c2ccc(Cl)cc2)nn1C1C(=O)C/C(=C\C2CCOCC2)C1=O (stereo not drawn) [Compound A23]	100%

These compounds were tested on Alopecurus myosuroides (ALOMY) in the same assay as above. Settings: 312 h, evaluated after 13 days, 100=total damage to plant, 0=no damage.
Type: in vivo
Protocol: as §1

Structure (SMILES)	pest or weed control at 250 g/ha
Cc1sc(-c2ccc(Cl)cc2)nc1C1C(=O)C/C(=C/c2ccccn2)C1=O (stereo not drawn) [Compound A15]	10%
Cc1sc(-c2ccc(Cl)cc2)nc1C1C(=O)CC(Cc2ccccn2)C1=O (stereo not drawn) [Compound A16]	90%
Cc1cnc(-c2ccc(Cl)cc2)nc1C1C(=O)CC(CC2CCOCC2)C1=O (stereo not drawn) [Compound A8]	50%
Cc1sc(-c2ccc(Cl)cc2)cc1C1C(=O)CC(CC2CCOCC2)C1=O (stereo not drawn) [Compound A6]	50%
Cc1cc(-c2ccc(Cl)cc2)nn1C1C(=O)C/C(=C\C2CCOCC2)C1=O (stereo not drawn) [Compound A23]	90%

Each compound was assayed on Winter Wheat variety 'Hereward' (assay: Crop damage to winter wheat seed treated with safener cloquintocet mexyl, post-emergence spray). Settings: 250 g/ha, seed treated with cloquintocet mexyl 0.5 g/kg seed, evaluated after 13 days, 100=total damage, 0=no damage.
Type: in vivo
Protocol: Seeds of the Winter Wheat variety ‘Hereward’ were seed treated with a wettable powder formulation of the cereal herbicide safener, cloquintocet mexyl, at a rate of 0.5 grams per kilogram of dry seed prior to the initiation of glasshouse testing. One seed was sown per 1.5 inch plastic pot into a sandy loam soil at a depth of 1 cm, 8 days prior to application of the test compounds and was watered and grown under controlled conditions in a glasshouse (at 24/16° C., day/night; 14 hours light; 65% humidity). The plants were sprayed post-emergence with an aqueous spray solution derived from the formulation of the technical active ingredient in acetone/water (50:50) solution containing 0.5% Tween 20 (polyoxyethylene sorbitan monolaurate, CAS RN 9005-64-5). The test plants were then grown in a glasshouse under controlled conditions in a glasshouse (at 24/16° C., day/night; 14 hours light; 65% humidity) and watered twice daily. After 13 days for pre and post-emergence, the test was evaluated (100=total damage to plant; 0=no damage to plant).

Structure (SMILES)	Winter Wheat (Hereward) + cloquintocet mexyl (damage to plant)
Cc1sc(-c2ccc(Cl)cc2)nc1C1C(=O)C/C(=C/c2ccccn2)C1=O (stereo not drawn) [Compound A15]	0
Cc1sc(-c2ccc(Cl)cc2)nc1C1C(=O)CC(Cc2ccccn2)C1=O (stereo not drawn) [Compound A16]	60
Cc1cnc(-c2ccc(Cl)cc2)nc1C1C(=O)CC(CC2CCOCC2)C1=O (stereo not drawn) [Compound A8]	0
Cc1sc(-c2ccc(Cl)cc2)cc1C1C(=O)CC(CC2CCOCC2)C1=O (stereo not drawn) [Compound A6]	0
Cc1cc(-c2ccc(Cl)cc2)nn1C1C(=O)C/C(=C\C2CCOCC2)C1=O (stereo not drawn) [Compound A23]	60

These compounds were tested on Lolium perenne (LOLPE) (assay: Pre-emergence herbicidal activity, glasshouse pot test). Settings: rate not printed (columns shifted), evaluated after 13 days, 100=total damage to plant, 0=no damage.
Type: in vivo
Protocol: as §1, with “Pre-Emergence” for “Post-Emergence”

Structure (SMILES)	Pre-Emergence Activity LOLPE (damage to plant)
Cc1sc(-c2ccc(Cl)cc2)nc1C1C(=O)CC(Cc2ccccn2)C1=O (stereo not drawn) [Compound A16]	90
Cc1cnc(-c2ccc(Cl)cc2)nc1C1C(=O)CC(CC2CCOCC2)C1=O (stereo not drawn) [Compound A8]	80
Cc1cc(-c2ccc(Cl)cc2)nn1C1C(=O)C/C(=C\C2CCOCC2)C1=O (stereo not drawn) [Compound A23]	100

Each compound was assayed on Echinochloa crus-galli (ECHCG) in the same assay as above. Settings: rate not printed (columns shifted), evaluated after 13 days, 100=total damage to plant, 0=no damage.
Type: in vivo
Protocol: as §1, with “Pre-Emergence” for “Post-Emergence”

Structure (SMILES)	Pre-Emergence Activity ECHCG (damage to plant)
Cc1sc(-c2ccc(Cl)cc2)nc1C1C(=O)CC(Cc2ccccn2)C1=O (stereo not drawn) [Compound A16]	100
Cc1cnc(-c2ccc(Cl)cc2)nc1C1C(=O)CC(CC2CCOCC2)C1=O (stereo not drawn) [Compound A8]	100
Cc1cc(-c2ccc(Cl)cc2)nn1C1C(=O)C/C(=C\C2CCOCC2)C1=O (stereo not drawn) [Compound A23]	100

Each compound was assayed on Avena fatua (AVEFA) in the same assay as above. Settings: rate not printed (columns shifted), evaluated after 13 days, 100=total damage to plant, 0=no damage.
Type: in vivo
Protocol: as §1, with “Pre-Emergence” for “Post-Emergence”

Structure (SMILES)	Pre-Emergence Activity AVEFA (damage to plant)
Cc1sc(-c2ccc(Cl)cc2)nc1C1C(=O)CC(Cc2ccccn2)C1=O (stereo not drawn) [Compound A16]	80
Cc1cnc(-c2ccc(Cl)cc2)nc1C1C(=O)CC(CC2CCOCC2)C1=O (stereo not drawn) [Compound A8]	60
Cc1cc(-c2ccc(Cl)cc2)nn1C1C(=O)C/C(=C\C2CCOCC2)C1=O (stereo not drawn) [Compound A23]	90

Each compound was assayed on Alopecurus myosuroides (ALOMY) in the same assay as above. Settings: rate not printed (columns shifted), evaluated after 13 days, 100=total damage to plant, 0=no damage.
Type: in vivo
Protocol: as §1, with “Pre-Emergence” for “Post-Emergence”

Structure (SMILES)	Pre-Emergence Activity ALOMY (damage to plant)
Cc1sc(-c2ccc(Cl)cc2)nc1C1C(=O)CC(Cc2ccccn2)C1=O (stereo not drawn) [Compound A16]	90
Cc1cnc(-c2ccc(Cl)cc2)nc1C1C(=O)CC(CC2CCOCC2)C1=O (stereo not drawn) [Compound A8]	50
Cc1cc(-c2ccc(Cl)cc2)nn1C1C(=O)C/C(=C\C2CCOCC2)C1=O (stereo not drawn) [Compound A23]	90
